pIC50: −log10 of the molar value.
Legend:
[1] = test system: Ramos B-Cell Line Stimulated with IL-4; test: Assay for Ramos B-Cell Line Stimulated with IL-4 (CD23 upregulation, FACS; Example 2); assay type: cell-based; conditions: human Ramos B cells, IL-4 50 units/mL for 20-24 hours, anti-CD23-PE
Text: One means of assaying for such inhibition is detection of the effect of the 2,4-pyrimidinediamine compounds on the upregulation of downstream gene products. In the Ramos/IL4 assay, B-cells are stimulated with the cytokine Interleukin-4 (IL-4) leading to the activation of the JAK/Stat pathway through phosphorylation of the JAK family kinases, JAK1 and JAK3, which in turn phosphorylate and activate the transcription factor Stat-6. […] To study the effect of inhibitors (e.g., the 2,4-substituted pyrimindinediamine compounds described herein) on the JAK1 and JAK3 kinases, human Ramos B cells are stimulated with human IL-4. 20 to 24 hours post stimulation, cells are stained for upregulation of CD23 and analyzed using flow cytometry (FACS). […] An exemplary assay of this type is described in greater detail in Example 2.
B-cells stimulated with cytokine Interleukin-4 (IL-4) activate the JAK/Stat pathway through phosphorylation of the JAK family kinases, JAK-1 and JAK-3, which in turn phosphorylate and activate the transcription factor Stat-6. […] To study the effect of inhibitors on the JAK family kinases, human Ramos B cells are stimulated with human IL-4.
The Ramos B-cell line was acquired from ATCC (ATCC Catalog No. CRL-1596). The cells were cultured in RPMI 1640 (Cellgro, MediaTech, Inc., Herndon, Va., Cat No. 10-040-CM) with 10% fetal bovine serum (FBS), heat inactivated (JRH Biosciences, Inc, Lenexa, Kans., Cat No. 12106-500M) according to ATCC propagation protocol. Cells were maintained at a density of 3.5×10^5. The day before the experiment, Ramos B-cells were diluted to 3.5×10^5 cells/mL to ensure that they were in a logarithmic growth phase.
Cells were spun down and suspended in RPMI with 5% serum. 5×10^4 cells were used per point in a 96-well tissue culture plate. Cells were pre-incubated with compound or DMSO (Sigma-Aldrich, St. Louis, Mo., Cat No. D2650) vehicle control for 1 hour in a 37° C. incubator.
Cells were then stimulated with IL-4 (Peprotech Inc., Rocky Hill, N.J., Cat No. 200-04) for a final concentration of 50 units/mL for 20-24 hours. Cells were then spun down and stained with anti-CD23-PE (BD Pharmingen, San Diego, Calif., Cat No. 555711) and analyzed by FACS. Detection was performed using a BD LSR I System Flow Cytometer, purchased from Becton Dickinson Biosciences of San Jose, Calif.

[2] = test system: BaF3 V617F cells; UKE-1; test: Proliferation Assay (Cell Titer-Glo; Example 7); assay type: cell-based; conditions: proliferation 72 hours, inhibit JAK2 activity, cell line (BaF3 V617F or UKE-1) not stated
Method in brief: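 BaF3 V617F cells (RPMI, 10% FBS) and UKE-1 cells (Iscove's DMEM, 10% FBS, 10% equine serum, 1 uM hydrocortisone) were exposed to 3-fold serially diluted compound in duplicate for 72 hours at 37 °C. Viable cell number quantified by Cell Titer-Glo luminescence; IC50 reported.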

Row | SMILES | pIC50 [1] | pIC50 [2]
1 | Cc1cnc(Nc2cccc(C(N)=O)c2)nc1Nc1ccc(CNS(=O)(=O)C2CC2)cc1 [II-32, N2-(3-aminocarbonyl)phenyl-N4-(4-cyclopropylsulfonylaminomethyl)phenyl-5-methyl-2,4-pyrimidinediamine] | 7.28 | 5.82
2 | Cc1cc(C)cc(Nc2ncc(C)c(Nc3ccc(CNS(=O)(=O)C4CC4)c(Cl)c3)n2)c1 [II-38, N4-(3-chloro-4-cyclopropylsulfonylaminomethyl)phenyl-N2-(3,5-dimethyl)phenyl-5-methyl-2,4-pyrimidinediamine] | 6.48 | 5.81
3 | Cc1cc(C)cc(Nc2ncc(C)c(Nc3ccc(CN(C)S(=O)(=O)C4CC4)cc3)n2)c1 [II-39, N4-[4-(N-cyclopropylsulfonyl-N-methyl)aminomethyl]phenyl-N2-(3,5-dimethyl)phenyl-5-methyl-2,4-pyrimidinediamine] | 6.49 | 5.69
4 | Cc1cc(C)cc(Nc2ncc(C)c(Nc3cccc(CN(C)S(=O)(=O)C4CC4)c3)n2)c1 [II-40, N4-[3-(N-cyclopropylsulfonyl-N-methyl)aminomethyl]phenyl-N2-(3,5-dimethyl)phenyl-5-methyl-2,4-pyrimidinediamine] | 6.15 | 5.66
5 | COc1c(C)cc(Nc2ncc(C)c(Nc3cccc(CNS(=O)(=O)C4CC4)c3)n2)cc1C [II-44, N4-(3-cyclopropylsulfonylaminomethyl)phenyl-N2-(3,5-dimethyl-4-methoxy)phenyl-5-methyl-2,4-pyrimidinediamine] | 7.11 | 6.31
6 | O=S(=O)(NCc1ccc(Nc2nc(Nc3ccc4ccn(CCN5CCOCC5)c4c3)ncc2F)cc1)C1CC1 [III-1, N4-[4-(Cyclopropylsulfonylaminomethyl)phenyl]-5-fluoro-N2-[1-(2-(N-morpholino)ethyl)indol-6-yl]-2,4-pyrimidinediamine] | 6.54 | 5.53
7 | O=C(NCCN1CCOCC1)n1ccc2ccc(Nc3ncc(F)c(Nc4ccc(CNS(=O)(=O)C5CC5)cc4)n3)cc21 [III-2, N4-[4-(Cyclopropylsulfonylaminomethyl)phenyl]-5-fluoro-N2-[1-(2-(N-morpholino)ethylaminocarbonyl)indol-6-yl]-2,4-pyrimidinediamine] | 6.04 | 5.21
8 | Cc1nc2cc(Nc3ncc(F)c(Nc4ccc(CNS(=O)(=O)C5CC5)cc4)n3)ccc2[nH]1 [III-5, N4-(4-cyclopropylsulfonylaminomethyl)phenyl-5-fluoro-N2-(2-methylbenzoimidazol-5-yl)-2,4-pyrimidinediamine] | 6.75 | 5.20
9 | Cc1cnc(Nc2ccc3c(c2)nc(C)n3C)nc1Nc1ccc(CNS(=O)(=O)C2CC2)cc1 [IV-7, N4-(4-cyclopropylsulfonylaminomethyl)phenyl-N2-(1,2-dimethylbenzoimidazol-5-yl)-5-methyl-2,4-pyrimidinediamine] | 6.94 | 6.10
10 | O=S(=O)(NCc1ccc(Nc2nc(NC3CCCC3)ncc2F)cc1)C1CC1 [VIII-2, N2-cyclopentyl-N4-(4-cyclopropylsulfonylaminomethyl)phenyl-5-fluoro-2,4-pyrimidinediamine] | 5.72 | 4.25
11 | Cc1cc(C)cc(Nc2ncc(C)c(Nc3ccc4c(c3)CCN(S(=O)(=O)C3CC3)C4)n2)c1 [VIII-7, N4-[(N-cyclopropylsulfonyl)-1,2,3,4-tetrahydroisoquinolin-6-yl]-N2-(3,5-dimethyl)phenyl-5-methyl-2,4-pyrimidinediamine] | 6.96 | 6.32

Compounds with a higher pIC50 [1], results first:

Row | pIC50 [1] | pIC50 [2] | SMILES
12 | 7.69 | 6.16 | Cc1cnc(Nc2ccc(C#N)cc2)nc1Nc1ccc(CNS(=O)(=O)C2CC2)cc1 [II-33, N2-(4-cyano)phenyl-N4-(4-cyclopropylsulfonylaminomethyl)phenyl-5-methyl-2,4-pyrimidinediamine]
13 | 7.34 | 6.34 | Cc1cnc(Nc2cccc(C#N)c2)nc1Nc1ccc(CNS(=O)(=O)C2CC2)cc1 [II-34, N2-(3-cyano)phenyl-N4-(4-cyclopropylsulfonylaminomethyl)phenyl-5-methyl-2,4-pyrimidinediamine]
14 | 7.31 | 6.04 | COc1ccc(Nc2ncc(Cl)c(Nc3ccc(CNS(=O)(=O)C4CC4)cc3)n2)cc1Cl [II-35, 5-chloro-N2-(3-chloro-4-methoxy)phenyl-N4-(4-cyclopropylsulfonylaminomethyl)phenyl-2,4-pyrimidinediamine]
15 | 7.42 | 6.22 | Cc1cc(C)cc(Nc2ncc(Cl)c(Nc3ccc(CNS(=O)(=O)C4CC4)cc3)n2)c1 [II-36, 5-chloro-N4-(4-cyclopropylsulfonylaminomethyl)phenyl-N2-(3,5-dimethyl)phenyl-2,4-pyrimidinediamine]
16 | 7.74 | 6.06 | NC(=O)c1ccc(Nc2ncc(Cl)c(Nc3ccc(CNS(=O)(=O)C4CC4)cc3)n2)cc1 [II-37, N2-(4-aminocarbonyl)phenyl-5-chloro-N4-(4-cyclopropylsulfonylaminomethyl)phenyl-2,4-pyrimidinediamine]
17 | 7.42 | 6.91 | COc1c(C)cc(Nc2ncc(F)c(Nc3ccc(CNS(=O)(=O)C4CC4)cc3)n2)cc1C [II-41, N4-(4-cyclopropylsulfonylaminomethyl)phenyl-N2-(3,5-dimethyl-4-methoxy)phenyl-5-fluoro-2,4-pyrimidinediamine]
18 | 7.61 | 7.20 | COc1c(C)cc(Nc2ncc(C)c(Nc3ccc(CNS(=O)(=O)C4CC4)cc3)n2)cc1C [II-42, N4-(4-cyclopropylsulfonylaminomethyl)phenyl-N2-(3,5-dimethyl-4-methoxy)phenyl-5-methyl-2,4-pyrimidinediamine]
19 | 7.41 | 7.62 | COc1c(C)cc(Nc2ncc(Cl)c(Nc3ccc(CNS(=O)(=O)C4CC4)cc3)n2)cc1C [II-43, 5-chloro-N4-(4-cyclopropylsulfonylaminomethyl)phenyl-N2-(3,5-dimethyl-4-methoxy)phenyl-2,4-pyrimidinediamine]
20 | 7.31 | 5.24 | Cc1nc2cc(Nc3ncc(C)c(Nc4ccc(CNS(=O)(=O)C5CC5)cc4)n3)ccc2[nH]1 [III-3, N4-(4-cyclopropylsulfonylaminomethyl)phenyl-5-methyl-N2-(2-methylbenzoimidazol-5-yl)-2,4-pyrimidinediamine]
21 | 7.58 | 5.84 | Cc1nc2cc(Nc3ncc(Cl)c(Nc4ccc(CNS(=O)(=O)C5CC5)cc4)n3)ccc2[nH]1 [III-6, 5-chloro-N4-(4-cyclopropylsulfonylaminomethyl)phenyl-N2-(2-methylbenzoimidazol-5-yl)-2,4-pyrimidinediamine]

Reference: US8304422B2, “Compositions and methods for inhibition of the JAK pathway” (Rigel Pharmaceuticals, Inc., priority 2007, dated 2012)
